# Measured values as given in paper PMC5341858, “Molecular regulation of apoptotic machinery and lipid metabolism by mTORC1/mTORC2 dual inhibitors in preclinical models of HER2+/PIK3CAmut breast cancer” (Oncotarget, 2016).
# Columns and labels:
# Test in all cases: KINOMEscan binding assay
# Details in all cases: 1000 nM, percent control relative to vehicle
# [1] = target: T1, ABL1 (T315I)- phosphorylated (Homo sapiens, UniProt P00519, T315I)
# T1 construct: purchased DiscoveRx KINOMEscan
# Excerpt: (§1) IC50 values were generated using Graphpad PRISM 5 software.
# ACVR1B = target: T2, ACVR1B (Homo sapiens, UniProt P36896)
# T2 construct: purchased DiscoveRx KINOMEscan
# Excerpt: as §1
# ADCK3 = target: T3, ADCK3 (Homo sapiens, UniProt Q8NI60)
# T3 construct: purchased DiscoveRx KINOMEscan
# T3 sequence (Q8NI60 163-647): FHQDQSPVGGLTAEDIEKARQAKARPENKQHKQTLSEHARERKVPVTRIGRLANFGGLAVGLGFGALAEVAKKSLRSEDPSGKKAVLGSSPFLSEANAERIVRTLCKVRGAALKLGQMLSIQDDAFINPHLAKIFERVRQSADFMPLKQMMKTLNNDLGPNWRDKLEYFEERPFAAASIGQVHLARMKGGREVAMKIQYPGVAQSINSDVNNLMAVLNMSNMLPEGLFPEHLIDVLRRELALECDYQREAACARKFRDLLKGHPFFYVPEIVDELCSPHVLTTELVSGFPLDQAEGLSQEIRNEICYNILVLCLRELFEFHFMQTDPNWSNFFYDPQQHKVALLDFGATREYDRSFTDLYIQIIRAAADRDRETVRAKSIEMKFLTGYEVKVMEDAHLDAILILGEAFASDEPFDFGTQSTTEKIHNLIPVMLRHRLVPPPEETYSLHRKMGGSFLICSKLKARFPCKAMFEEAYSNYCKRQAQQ
# Excerpt: as §1
# AXL = target: T4, AXL (Homo sapiens, UniProt P30530)
# T4 construct: purchased DiscoveRx KINOMEscan
# Excerpt: as §1
# BMPR2 = target: T5, BMPR2 (Homo sapiens, UniProt Q13873)
# T5 construct: purchased DiscoveRx KINOMEscan
# Excerpt: as §1
# BRAF (V600E) = target: T6, BRAF (V600E) (Homo sapiens, UniProt P15056, V600E)
# T6 construct: purchased DiscoveRx KINOMEscan
# Excerpt: as §1
# CDK7 = target: T7, CDK7 (Homo sapiens, UniProt P50613)
# T7 construct: purchased DiscoveRx KINOMEscan
# T7 sequence (P50613 whole entry): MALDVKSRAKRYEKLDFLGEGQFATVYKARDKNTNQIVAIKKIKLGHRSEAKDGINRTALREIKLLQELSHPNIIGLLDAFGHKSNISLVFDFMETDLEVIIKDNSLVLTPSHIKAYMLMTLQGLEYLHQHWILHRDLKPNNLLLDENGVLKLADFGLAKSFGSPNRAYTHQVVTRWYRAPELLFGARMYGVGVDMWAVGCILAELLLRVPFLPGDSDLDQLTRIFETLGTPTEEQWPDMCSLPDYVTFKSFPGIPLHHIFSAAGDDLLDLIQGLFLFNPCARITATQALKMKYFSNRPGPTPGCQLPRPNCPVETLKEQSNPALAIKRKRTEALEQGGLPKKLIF
# Excerpt: as §1
# CHEK1 = target: T8, CHEK1 (Homo sapiens, UniProt O14757)
# T8 construct: purchased DiscoveRx KINOMEscan
# Excerpt: as §1
# CSF1R = target: T9, CSF1R (Homo sapiens, UniProt P07333)
# T9 construct: purchased DiscoveRx KINOMEscan
# Excerpt: as §1
# DCAMKL1 = target: T10, DCAMKL1 (Homo sapiens, UniProt O15075)
# T10 construct: purchased DiscoveRx KINOMEscan
# Excerpt: as §1
# EPHA2 = target: T11, EPHA2 (Homo sapiens, UniProt P29317)
# T11 construct: purchased DiscoveRx KINOMEscan
# Excerpt: as §1
# FAK = target: T12, FAK (Homo sapiens, UniProt Q05397)
# T12 construct: purchased DiscoveRx KINOMEscan
# T12 sequence (Q05397 whole entry): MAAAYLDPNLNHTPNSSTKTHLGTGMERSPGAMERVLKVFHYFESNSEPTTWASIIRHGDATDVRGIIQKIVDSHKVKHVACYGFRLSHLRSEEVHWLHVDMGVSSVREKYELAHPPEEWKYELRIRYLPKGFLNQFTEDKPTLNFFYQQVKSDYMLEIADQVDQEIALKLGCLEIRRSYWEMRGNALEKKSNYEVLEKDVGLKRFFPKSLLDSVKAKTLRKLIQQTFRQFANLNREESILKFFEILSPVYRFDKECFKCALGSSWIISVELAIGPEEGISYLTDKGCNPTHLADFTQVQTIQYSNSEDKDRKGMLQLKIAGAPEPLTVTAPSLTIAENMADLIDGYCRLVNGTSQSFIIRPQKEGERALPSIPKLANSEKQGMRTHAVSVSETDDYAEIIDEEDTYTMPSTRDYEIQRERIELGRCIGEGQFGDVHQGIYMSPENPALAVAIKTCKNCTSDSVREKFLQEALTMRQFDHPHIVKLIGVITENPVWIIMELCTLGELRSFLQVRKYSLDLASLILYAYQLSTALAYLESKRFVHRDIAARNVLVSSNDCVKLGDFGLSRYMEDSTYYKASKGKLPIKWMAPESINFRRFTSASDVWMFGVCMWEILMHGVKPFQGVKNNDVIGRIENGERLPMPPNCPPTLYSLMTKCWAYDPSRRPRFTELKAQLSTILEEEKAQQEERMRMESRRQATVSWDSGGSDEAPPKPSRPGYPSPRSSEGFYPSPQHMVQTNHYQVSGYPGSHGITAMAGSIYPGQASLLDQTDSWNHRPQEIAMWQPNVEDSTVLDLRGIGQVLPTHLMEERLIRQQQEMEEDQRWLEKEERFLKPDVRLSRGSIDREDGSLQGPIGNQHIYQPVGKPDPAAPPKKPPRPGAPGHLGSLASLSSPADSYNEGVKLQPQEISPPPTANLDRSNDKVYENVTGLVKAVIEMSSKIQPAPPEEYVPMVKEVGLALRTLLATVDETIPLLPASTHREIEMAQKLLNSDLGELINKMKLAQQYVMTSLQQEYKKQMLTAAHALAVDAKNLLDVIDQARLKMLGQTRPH
# Excerpt: as §1
# FGFR2 = target: T13, FGFR2 (Homo sapiens, UniProt P21802)
# T13 construct: purchased DiscoveRx KINOMEscan
# Excerpt: as §1
# INSR = target: T14, INSR (Homo sapiens, UniProt P06213)
# T14 construct: purchased DiscoveRx KINOMEscan
# Excerpt: as §1
# [2] = target: T15, JAK3 (JH1domain-catalytic) (Homo sapiens, UniProt P52333)
# T15 construct: JAK3 (JH1domain-catalytic); purchased DiscoveRx KINOMEscan
# Excerpt: as §1
# KIT = target: T16, KIT (Homo sapiens, UniProt P10721)
# T16 construct: purchased DiscoveRx KINOMEscan
# Excerpt: as §1
# LKB1 = target: T17, LKB1 (Homo sapiens, UniProt Q15831)
# T17 construct: purchased DiscoveRx KINOMEscan
# Excerpt: as §1
# MAP3K4 = target: T18, MAP3K4 (Homo sapiens, UniProt Q9Y6R4)
# T18 construct: purchased DiscoveRx KINOMEscan
# Excerpt: as §1
# MAPKAPK2 = target: T19, MAPKAPK2 (Homo sapiens, UniProt P49137)
# T19 construct: purchased DiscoveRx KINOMEscan
# Excerpt: as §1
# MEK2 = target: T20, MEK2 (Homo sapiens, UniProt P36507)
# T20 construct: purchased DiscoveRx KINOMEscan
# Excerpt: as §1
# MET = target: T21, MET (Homo sapiens, UniProt P08581)
# T21 construct: purchased DiscoveRx KINOMEscan
# T21 sequence (P08581 25-1390): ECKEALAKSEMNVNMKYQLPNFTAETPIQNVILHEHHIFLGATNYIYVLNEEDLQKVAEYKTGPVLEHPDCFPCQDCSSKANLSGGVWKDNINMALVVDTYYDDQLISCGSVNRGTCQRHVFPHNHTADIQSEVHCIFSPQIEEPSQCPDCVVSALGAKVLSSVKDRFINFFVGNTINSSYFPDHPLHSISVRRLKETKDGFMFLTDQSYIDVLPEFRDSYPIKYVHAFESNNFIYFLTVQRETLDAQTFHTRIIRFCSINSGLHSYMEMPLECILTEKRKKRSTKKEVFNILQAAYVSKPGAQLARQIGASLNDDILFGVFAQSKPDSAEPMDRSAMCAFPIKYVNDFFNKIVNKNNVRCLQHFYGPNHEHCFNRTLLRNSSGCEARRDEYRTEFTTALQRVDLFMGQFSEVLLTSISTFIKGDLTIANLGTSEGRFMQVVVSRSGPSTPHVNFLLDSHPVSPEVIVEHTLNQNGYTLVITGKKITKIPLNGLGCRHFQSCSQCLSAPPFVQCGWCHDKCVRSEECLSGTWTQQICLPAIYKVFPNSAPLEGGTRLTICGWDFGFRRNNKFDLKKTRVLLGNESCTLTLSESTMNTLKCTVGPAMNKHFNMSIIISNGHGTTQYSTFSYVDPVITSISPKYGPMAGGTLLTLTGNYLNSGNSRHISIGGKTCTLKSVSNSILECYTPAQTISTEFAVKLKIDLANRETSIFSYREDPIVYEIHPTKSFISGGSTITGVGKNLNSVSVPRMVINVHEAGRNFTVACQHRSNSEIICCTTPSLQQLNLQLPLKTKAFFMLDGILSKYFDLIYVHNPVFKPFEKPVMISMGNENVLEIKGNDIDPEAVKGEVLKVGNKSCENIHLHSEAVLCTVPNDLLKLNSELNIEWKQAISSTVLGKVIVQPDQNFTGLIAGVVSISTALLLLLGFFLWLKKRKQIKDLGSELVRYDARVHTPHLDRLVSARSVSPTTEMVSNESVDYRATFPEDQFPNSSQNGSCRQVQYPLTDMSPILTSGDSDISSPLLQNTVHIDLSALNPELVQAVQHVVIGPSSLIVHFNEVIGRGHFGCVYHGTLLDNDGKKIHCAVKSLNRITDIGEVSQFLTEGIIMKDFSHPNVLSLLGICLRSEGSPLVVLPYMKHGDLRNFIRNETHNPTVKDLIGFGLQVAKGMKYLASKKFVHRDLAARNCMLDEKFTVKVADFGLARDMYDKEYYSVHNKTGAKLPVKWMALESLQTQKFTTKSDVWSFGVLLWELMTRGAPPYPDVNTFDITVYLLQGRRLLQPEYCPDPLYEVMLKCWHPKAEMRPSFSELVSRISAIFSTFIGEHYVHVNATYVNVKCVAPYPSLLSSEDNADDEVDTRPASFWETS
# Excerpt: as §1
# MKNK2 = target: T22, MKNK2 (Homo sapiens, UniProt Q9HBH9)
# T22 construct: purchased DiscoveRx KINOMEscan
# Excerpt: as §1
# MLK1 = target: T23, MLK1 (Homo sapiens, UniProt P80192)
# T23 construct: purchased DiscoveRx KINOMEscan
# Excerpt: as §1
# PAK1 = target: T24, PAK1 (Homo sapiens, UniProt Q13153)
# T24 construct: purchased DiscoveRx KINOMEscan
# T24 sequence (Q13153 whole entry): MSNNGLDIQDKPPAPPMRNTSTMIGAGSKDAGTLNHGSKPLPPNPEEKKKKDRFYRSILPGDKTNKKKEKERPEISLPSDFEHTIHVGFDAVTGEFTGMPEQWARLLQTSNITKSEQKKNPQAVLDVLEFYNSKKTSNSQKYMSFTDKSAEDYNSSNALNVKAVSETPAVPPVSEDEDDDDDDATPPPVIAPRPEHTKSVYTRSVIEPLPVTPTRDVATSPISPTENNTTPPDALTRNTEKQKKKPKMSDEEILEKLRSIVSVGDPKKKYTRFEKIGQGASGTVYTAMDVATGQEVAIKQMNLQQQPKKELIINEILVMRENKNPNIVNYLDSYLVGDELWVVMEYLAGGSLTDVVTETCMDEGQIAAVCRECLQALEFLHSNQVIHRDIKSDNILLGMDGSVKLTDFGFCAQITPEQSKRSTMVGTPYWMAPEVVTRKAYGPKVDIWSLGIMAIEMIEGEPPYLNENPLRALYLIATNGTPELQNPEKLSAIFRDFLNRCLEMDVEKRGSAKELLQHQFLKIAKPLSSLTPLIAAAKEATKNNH
# Excerpt: as §1
# PCTK1 = target: T25, PCTK1 (Homo sapiens, UniProt Q00536)
# T25 construct: purchased DiscoveRx KINOMEscan
# Excerpt: as §1
# PDGFRA = target: T26, PDGFRA (Homo sapiens, UniProt P16234)
# T26 construct: purchased DiscoveRx KINOMEscan
# Excerpt: as §1
# PKAC-alpha = target: T27, PKAC-alpha (Homo sapiens, UniProt P17612)
# T27 construct: purchased DiscoveRx KINOMEscan
# Excerpt: as §1
# PLK1 = target: T28, PLK1 (Homo sapiens, UniProt P53350)
# T28 construct: purchased DiscoveRx KINOMEscan
# Excerpt: as §1
# PLK3 = target: T29, PLK3 (Homo sapiens, UniProt Q9H4B4)
# T29 construct: purchased DiscoveRx KINOMEscan
# T29 sequence (Q9H4B4 whole entry): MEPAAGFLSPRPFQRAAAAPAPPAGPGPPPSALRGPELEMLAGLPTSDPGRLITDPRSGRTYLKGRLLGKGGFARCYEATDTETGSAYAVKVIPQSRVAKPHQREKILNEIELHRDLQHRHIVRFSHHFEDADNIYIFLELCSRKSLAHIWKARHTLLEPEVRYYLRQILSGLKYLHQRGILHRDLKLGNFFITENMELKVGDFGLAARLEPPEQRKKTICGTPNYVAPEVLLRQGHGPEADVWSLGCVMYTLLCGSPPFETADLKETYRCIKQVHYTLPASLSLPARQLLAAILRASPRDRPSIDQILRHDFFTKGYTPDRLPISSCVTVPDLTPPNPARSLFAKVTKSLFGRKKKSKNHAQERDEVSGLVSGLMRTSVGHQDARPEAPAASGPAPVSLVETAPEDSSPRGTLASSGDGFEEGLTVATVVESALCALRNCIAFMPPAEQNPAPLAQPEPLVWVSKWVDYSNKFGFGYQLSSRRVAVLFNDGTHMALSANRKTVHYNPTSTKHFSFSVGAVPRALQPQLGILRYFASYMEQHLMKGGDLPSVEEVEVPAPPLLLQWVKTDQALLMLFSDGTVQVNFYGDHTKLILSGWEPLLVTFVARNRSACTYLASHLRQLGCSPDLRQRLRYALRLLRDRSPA
# Excerpt: as §1
# PLK4 = target: T30, PLK4 (Homo sapiens, UniProt O00444)
# T30 construct: purchased DiscoveRx KINOMEscan
# Excerpt: as §1
# RIOK2 = target: T31, RIOK2 (Homo sapiens, UniProt Q9BVS4)
# T31 construct: purchased DiscoveRx KINOMEscan
# Excerpt: as §1
# [3] = target: T32, RSK2 (Kin.Dom.1-N- terminal) (Homo sapiens, UniProt P51812)
# T32 construct: RSK2 (Kin.Dom.1-N- terminal); purchased DiscoveRx KINOMEscan
# Excerpt: as §1
# SNARK = target: T33, SNARK (Homo sapiens, UniProt Q9H093)
# T33 construct: purchased DiscoveRx KINOMEscan
# Excerpt: as §1
# SRC = target: T34, SRC (Homo sapiens, UniProt P12931)
# T34 construct: purchased DiscoveRx KINOMEscan
# Excerpt: as §1
# SRPK3 = target: T35, SRPK3 (Homo sapiens, UniProt Q9UPE1)
# T35 construct: purchased DiscoveRx KINOMEscan
# T35 sequence (Q9UPE1 whole entry): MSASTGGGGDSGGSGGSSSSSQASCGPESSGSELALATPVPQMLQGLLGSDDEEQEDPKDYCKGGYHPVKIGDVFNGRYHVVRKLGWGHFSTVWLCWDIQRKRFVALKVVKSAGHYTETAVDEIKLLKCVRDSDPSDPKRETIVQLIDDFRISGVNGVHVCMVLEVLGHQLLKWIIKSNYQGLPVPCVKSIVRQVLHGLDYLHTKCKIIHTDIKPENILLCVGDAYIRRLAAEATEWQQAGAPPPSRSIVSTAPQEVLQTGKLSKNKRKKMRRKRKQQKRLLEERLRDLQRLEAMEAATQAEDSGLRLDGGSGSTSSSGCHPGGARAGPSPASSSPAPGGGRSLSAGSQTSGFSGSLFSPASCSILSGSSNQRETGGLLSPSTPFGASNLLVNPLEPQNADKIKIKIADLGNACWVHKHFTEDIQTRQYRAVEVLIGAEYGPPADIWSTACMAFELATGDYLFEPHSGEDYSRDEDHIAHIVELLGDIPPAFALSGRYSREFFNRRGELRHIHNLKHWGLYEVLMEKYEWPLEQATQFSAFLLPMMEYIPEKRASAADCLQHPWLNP
# Excerpt: as §1
# TGFBR1 = target: T36, TGFBR1 (Homo sapiens, UniProt P36897)
# T36 construct: purchased DiscoveRx KINOMEscan
# Excerpt: as §1
# TRKA = target: T37, TRKA (Homo sapiens, UniProt P04629)
# T37 construct: purchased DiscoveRx KINOMEscan
# Excerpt: as §1
# TSSK1B = target: T38, TSSK1B (Homo sapiens, UniProt Q9BXA7)
# T38 construct: purchased DiscoveRx KINOMEscan
# Excerpt: as §1
# [4] = target: T39, TYK2 (JH1domain-catalytic) (Homo sapiens, UniProt P29597)
# T39 construct: TYK2 (JH1domain-catalytic); purchased DiscoveRx KINOMEscan
# Excerpt: as §1
# VEGFR2 = target: T40, VEGFR2 (Homo sapiens, UniProt P35968)
# T40 construct: purchased DiscoveRx KINOMEscan
# Excerpt: as §1
# YANK3 = target: T41, YANK3 (Homo sapiens, UniProt Q86UX6)
# T41 construct: purchased DiscoveRx KINOMEscan
# Excerpt: as §1
# ZAP70 = target: T42, ZAP70 (Homo sapiens, UniProt P43403)
# T42 construct: purchased DiscoveRx KINOMEscan
# Excerpt: as §1
# p38-alpha = target: T43, p38-alpha (Homo sapiens, UniProt Q16539)
# T43 construct: purchased DiscoveRx KINOMEscan
# Excerpt: as §1
# p38-beta = target: T44, p38-beta (Homo sapiens, UniProt Q15759)
# T44 construct: purchased DiscoveRx KINOMEscan
# Excerpt: as §1
compound,measurement,setting,value
CNC(=O)c1cccc(-c2ccc3c(N4C5CCC4COC5)nc(N4CCOC[C@@H]4C)nc3n2)c1 [MTI-31],% Control,[1],76%
same,% Control,ACVR1B,86%
same,% Control,ADCK3,97%
same,% Control,AXL,97%
same,% Control,BMPR2,88%
same,% Control,BRAF (V600E),93%
same,% Control,CDK7,99%
same,% Control,CHEK1,83%
same,% Control,CSF1R,99%
same,% Control,DCAMKL1,76%
same,% Control,EPHA2,98%
same,% Control,FAK,89%
same,% Control,FGFR2,100%
same,% Control,INSR,100%
same,% Control,[2],82%
same,% Control,KIT,100%
same,% Control,LKB1,100%
same,% Control,MAP3K4,100%
same,% Control,MAPKAPK2,87%
same,% Control,MEK2,75%
same,% Control,MET,100%
same,% Control,MKNK2,100%
same,% Control,MLK1,100%
same,% Control,PAK1,100%
same,% Control,PCTK1,87%
same,% Control,PDGFRA,93%
same,% Control,PKAC-alpha,98%
same,% Control,PLK1,78%
same,% Control,PLK3,92%
same,% Control,PLK4,87%
same,% Control,RIOK2,80%
same,% Control,[3],78%
same,% Control,SNARK,89%
same,% Control,SRC,100%
same,% Control,SRPK3,90%
same,% Control,TGFBR1,93%
same,% Control,TRKA,84%
same,% Control,TSSK1B,100%
same,% Control,[4],63%
same,% Control,VEGFR2,98%
same,% Control,YANK3,85%
same,% Control,ZAP70,72%
same,% Control,p38-alpha,100%
same,% Control,p38-beta,100%
